The IC50 is the concentration that inhibits the measured activity by half.

SMILES strings stand for the structures. Where a chain is given by its changes, count along the chain named. Where two headings read alike, the source gives them in different places.

Results on 2 compounds are retold here after patent EP4796538A1, “NOVEL QUINOXALINE COMPOUNDS, MANUFACTURING METHOD THEREOF, AND USES THEREOF” (Gachon University of Industry-Academic Cooperation …, priority 2023, dated 2025).

One assay has as its target T1, RET(V804M)-KIF5B (Homo sapiens, UniProt P07949, V804M).
T1 sequence (P07949 713-1114 V804M): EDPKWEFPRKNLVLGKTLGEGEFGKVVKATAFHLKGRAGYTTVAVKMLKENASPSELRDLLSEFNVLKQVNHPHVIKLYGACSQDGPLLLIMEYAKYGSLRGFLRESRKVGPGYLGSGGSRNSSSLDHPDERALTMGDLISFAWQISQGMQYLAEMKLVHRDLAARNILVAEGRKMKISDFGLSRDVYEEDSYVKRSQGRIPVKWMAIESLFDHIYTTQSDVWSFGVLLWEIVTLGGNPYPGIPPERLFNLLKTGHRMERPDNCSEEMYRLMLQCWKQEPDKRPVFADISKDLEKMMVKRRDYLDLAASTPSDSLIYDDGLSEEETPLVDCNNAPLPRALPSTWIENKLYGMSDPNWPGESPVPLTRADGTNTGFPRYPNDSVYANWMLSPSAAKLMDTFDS
T1 sequence (P33176 2-575 partner): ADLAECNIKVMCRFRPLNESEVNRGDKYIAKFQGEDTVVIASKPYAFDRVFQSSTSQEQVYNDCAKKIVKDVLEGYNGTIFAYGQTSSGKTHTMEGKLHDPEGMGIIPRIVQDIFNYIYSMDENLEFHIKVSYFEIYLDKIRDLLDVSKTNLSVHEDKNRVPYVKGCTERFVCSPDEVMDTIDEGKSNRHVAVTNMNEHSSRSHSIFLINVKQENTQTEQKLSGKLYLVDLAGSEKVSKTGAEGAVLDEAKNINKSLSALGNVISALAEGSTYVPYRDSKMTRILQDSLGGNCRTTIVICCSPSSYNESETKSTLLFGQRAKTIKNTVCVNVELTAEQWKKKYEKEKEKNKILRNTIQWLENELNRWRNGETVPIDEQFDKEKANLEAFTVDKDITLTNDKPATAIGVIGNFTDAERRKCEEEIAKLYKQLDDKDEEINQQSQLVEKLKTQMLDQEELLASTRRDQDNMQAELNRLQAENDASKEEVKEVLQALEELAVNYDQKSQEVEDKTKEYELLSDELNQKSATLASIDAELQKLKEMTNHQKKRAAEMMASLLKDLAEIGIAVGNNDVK
As to the kind of experiment: Kinase panel inhibition, radiolabeled [γ-33P] ATP (Reaction Biology Corp). It counts as biochemical.

A further assay has as its system BaF3 KIF5B-RET (G810R). The experiment in a line: Cell proliferation inhibition, Cell Counting Kit-8, Ba/F3 cell line. The format is cell-based, rodent. Particulars: Mus musculus, 72 hours incubation, read-out: Cell Viability of BaF3 Cell lines (IC50 in uM) KIF5B-RET (G810R).
A further assay concerns A-549. As to the kind of experiment: Cell proliferation inhibition, Cell Counting Kit-8, non-small cell lung cancer cell line. It counts as cell-based. The conditions noted are these: A-549 cell line; 72 hours incubation; test concentration not given.
Another assay concerns the target T2, RET (Homo sapiens, UniProt P07949).
T2 construct: purchased Reaction Biology Corp
As to the kind of experiment: Kinase panel inhibition, radiolabeled [γ-33P] ATP (Reaction Biology Corp). The conditions noted are these: for remaining activity at 1 µM: compound at 1 uM, ATP 10 µM, read-out: % Enzyme Activity (relative to DMSO controls) RET; for IC50: read-out: Enzymatic inhibitory activity (IC50) nM RET. The format is biochemical.

The target of another assay is T3, RET(G810R) (Homo sapiens, UniProt P07949, G810R).
T3 construct: purchased Reaction Biology Corp
The description is as above. The format is biochemical. The conditions noted are these: for remaining activity at 1 µM: compound at 1 uM, ATP 10 µM, read-out: % Enzyme Activity (relative to DMSO controls) G810R; for IC50: read-out: Enzymatic inhibitory activity (IC50) nM G810R.

The target of a further assay is T4, RET(V804M) (Homo sapiens, UniProt P07949, V804M).
T4 construct: purchased Reaction Biology Corp
The assay is described as above. It counts as biochemical. The conditions noted are these: for remaining activity at 1 µM: compound at 1 uM, ATP 10 µM, read-out: % Enzyme Activity (relative to DMSO controls) V804M; for IC50: read-out: Enzymatic inhibitory activity (IC50) nM V804M.

The target of another assay is T5, RET (G810S/M918T) (Homo sapiens, UniProt P07949, G810S/M918T).
T5 construct: purchased Reaction Biology Corp
Described as above. The format is biochemical. The conditions noted are these: compound at 10 uM, ATP 1 µM.

A further assay deals with T6, KIF5B-RET (Homo sapiens, UniProt P07949).
T6 sequence (P07949 713-1114): T1 sequence (P07949 713-1114 V804M) with M92V
T6 sequence (P33176 2-575 partner): T1 sequence (P33176 2-575 partner)
The assay is described as above. The conditions noted are these: read-out: Enzymatic inhibitory activity (IC50) nM KIF5B-RET. It counts as biochemical. The procedure:
The inhibitory activities of the example and intermediate compounds of the present invention against a kinase panel (Reaction Biology Corp) of RET and RET mutations (RET(G810R), RET(V804M), KIF5B-RET, RET(V804M)-KIF5B, RET-CCDC6, RET-NCOA4, and RET(G810S/M918T)) were investigated. Using radiolabeled ATP ([γ-33P] ATP), the degree to which the substrate was replaced by a 33P-phosphorylated substrate was measured, and changes in kinase activity were determined from the measurement of the radiolabeled phosphorylated substrate. The example and intermediate compounds were tested at concentrations of 0.1 µM to 30 µM against ATP concentrations of 1 µM or 10 µM. The residual activity (%) of the example and intermediate compounds after inhibition against each kinase panel is shown in Tables 3 to 5 below. […]

Setting [1] is: Data 1, read-out: % Enzyme Activity (relative to DMSO controls) RET (G810S/M918T) Data 1.
The mark [2] stands for this setting: Data 2, read-out: % Enzyme Activity (relative to DMSO controls) RET (G810S/M918T) Data 2.

T5 sequence (P07949 29-1114 G810S/M918T): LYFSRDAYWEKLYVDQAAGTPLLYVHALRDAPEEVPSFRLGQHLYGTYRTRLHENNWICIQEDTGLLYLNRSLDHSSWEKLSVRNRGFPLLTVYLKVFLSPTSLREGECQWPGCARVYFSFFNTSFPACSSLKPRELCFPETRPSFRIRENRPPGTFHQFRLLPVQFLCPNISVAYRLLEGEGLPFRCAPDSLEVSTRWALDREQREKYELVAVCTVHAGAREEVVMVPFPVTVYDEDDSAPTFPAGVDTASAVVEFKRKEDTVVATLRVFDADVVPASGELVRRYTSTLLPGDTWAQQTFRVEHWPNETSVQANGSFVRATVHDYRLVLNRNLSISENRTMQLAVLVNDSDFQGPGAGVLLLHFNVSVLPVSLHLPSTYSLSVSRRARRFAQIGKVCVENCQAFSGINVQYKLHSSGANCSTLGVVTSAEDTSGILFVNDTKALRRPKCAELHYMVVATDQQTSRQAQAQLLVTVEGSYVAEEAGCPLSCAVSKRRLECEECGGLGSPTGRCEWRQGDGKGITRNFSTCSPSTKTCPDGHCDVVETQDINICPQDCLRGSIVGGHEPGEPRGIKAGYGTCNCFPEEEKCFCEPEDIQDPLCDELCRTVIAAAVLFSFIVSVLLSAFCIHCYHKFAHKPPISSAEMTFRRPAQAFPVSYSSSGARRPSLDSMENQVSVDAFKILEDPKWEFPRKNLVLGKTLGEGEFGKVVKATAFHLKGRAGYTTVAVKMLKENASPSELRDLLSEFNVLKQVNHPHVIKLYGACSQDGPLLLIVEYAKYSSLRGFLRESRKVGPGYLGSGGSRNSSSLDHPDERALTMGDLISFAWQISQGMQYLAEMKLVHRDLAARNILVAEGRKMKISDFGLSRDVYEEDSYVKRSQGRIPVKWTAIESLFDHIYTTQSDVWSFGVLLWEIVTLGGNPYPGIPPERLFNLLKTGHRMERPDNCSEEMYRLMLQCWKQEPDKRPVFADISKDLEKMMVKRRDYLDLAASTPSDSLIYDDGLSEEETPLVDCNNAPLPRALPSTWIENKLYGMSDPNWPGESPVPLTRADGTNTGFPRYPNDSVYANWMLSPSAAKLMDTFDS
T2 sequence (P07949 29-1114): as the sequence (P07949 29-1114 G810S/M918T) above, with S782G, T890M counted along it
T3 sequence (P07949 29-1114 G810R): as the sequence (P07949 29-1114 G810S/M918T) above, with S782R, T890M counted along it
T4 sequence (P07949 29-1114 V804M): as the sequence (P07949 29-1114 G810S/M918T) above, with V776M, S782G, T890M counted along it

As for `Nc1cc(-c2ccc(N3CC(Oc4cccc(F)c4)C3)nc2)c2nccnc2c1` [Example 1, 8-(6-(3-(3-fluorophenoxy)azetidin-1-yl)pyridin-3-yl)quinoxalin-6-amine], the IC50 came out at 6.71 nM against RET(V804M)-KIF5B; 0.88 µM with BaF3 KIF5B-RET (G810R); 3.9 nM on RET; 275 nM at RET(G810R); 4.2 nM on RET(V804M); 2.2 nM on KIF5B-RET. For the same compound, the “Cell Proliferation (% of control)” value in the assay with A-549 turned out to be 34.36%. The remaining activity at 1 µM at RET came to 0.51%; on RET(G810R), 24.5%; at RET(V804M), 1.72%. Further, the results for the remaining activity at 10 µM at RET (G810S/M918T) (setting [1]) and at RET (G810S/M918T) (setting [2]) were 0.22% and -0.72%, respectively.
On to `CCNc1cc(-c2ccc(N3CC(Oc4cccc(F)c4)C3)nc2)c2nccnc2c1` [Example 3, N-ethyl-8-(6-(3-(3-fluorophenoxy)azetidin-1-yl)pyridin-3-yl)quinoxalin-6-amine], for which the concentration for half-maximal inhibition (IC50) on RET(V804M)-KIF5B is 1.36 nM; in the assay with BaF3 KIF5B-RET (G810R) it was 1.09 µM; at RET, 0.57 nM; on RET(G810R) it was 142 nM; at RET(V804M), 0.78 nM; on KIF5B-RET it was below 0.5 nM. In addition, the “Cell Proliferation (% of control)” value in the assay on A-549 worked out at 25.06%. Moreover, the remaining activity at 1 µM was 0.14% on RET, 11.4% on RET(G810R) and 0.63% at RET(V804M). In addition, the remaining activity at 10 µM on RET (G810S/M918T) (setting [1]) was -0.47%; at RET (G810S/M918T) (setting [2]), -0.51%.
